Test results: PubChem BioAssay AID2060882 (Molecular Pharmacology Branch, DTP, NCI, 2025)

Tested on: 898857-211-R-J1-PDC complex spheroids, growth % test/control
Assay: Anticancer human tumor 898857-211-R-J1-PDC patient-derived melanoma cell line growth inhibition [RAS]
Settings: for IC50: curve of first compound; for viability, T/C: stronger effect = lower value
Method in brief: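 Multi-cell-type spheroids: tumor cells plus HUVEC endothelial cells and mesenchymal stem cells. RAS-pathway inhibitors were combined with targeted agents, each dosed in half-log steps down from clinical Cmax, or from 10 microM when Cmax was unknown.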

[1] = second compound 0.000949 µM, first compound 0.0316 µM
[2] = second compound 0.000949 µM, first compound 0.1 µM
[3] = second compound 0.000949 µM, first compound 0.316 µM
[4] = second compound 0.000949 µM, first compound 1 µM
[5] = second compound 0.000949 µM, first compound 3.16 µM
[6] = second compound 0.000949 µM, first compound 10 µM
[7] = second compound 0.003 µM, first compound 0.0316 µM
[8] = second compound 0.003 µM, first compound 0.1 µM
[9] = second compound 0.003 µM, first compound 0.316 µM
[10] = second compound 0.003 µM, first compound 1 µM
[11] = second compound 0.003 µM, first compound 3.16 µM
[12] = second compound 0.003 µM, first compound 10 µM
[13] = second compound 0.00949 µM, first compound 0.0316 µM
[14] = second compound 0.00949 µM, first compound 0.1 µM
[15] = second compound 0.00949 µM, first compound 0.316 µM
[16] = second compound 0.00949 µM, first compound 1 µM
[17] = second compound 0.00949 µM, first compound 3.16 µM
[18] = second compound 0.00949 µM, first compound 10 µM
[19] = second compound 0.03 µM, first compound 0.0316 µM
[20] = second compound 0.03 µM, first compound 0.1 µM
[21] = second compound 0.03 µM, first compound 0.316 µM
[22] = second compound 0.03 µM, first compound 1 µM
[23] = second compound 0.03 µM, first compound 3.16 µM
[24] = second compound 0.03 µM, first compound 10 µM
[25] = second compound 0.0949 µM, first compound 0.0316 µM
[26] = second compound 0.0949 µM, first compound 0.1 µM
[27] = second compound 0.0949 µM, first compound 0.316 µM
[28] = second compound 0.0949 µM, first compound 1 µM
[29] = second compound 0.0949 µM, first compound 3.16 µM
[30] = second compound 0.0949 µM, first compound 10 µM
[31] = second compound 0.3 µM, first compound 0.0316 µM
[32] = second compound 0.3 µM, first compound 0.1 µM
[33] = second compound 0.3 µM, first compound 0.316 µM
[34] = second compound 0.3 µM, first compound 1 µM
[35] = second compound 0.3 µM, first compound 3.16 µM
[36] = second compound 0.3 µM, first compound 10 µM
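Note: spheroids exposed to compound for seven days before readout.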
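Throughout, for viability, T/C: 100% = DMSO vehicle control wells.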

Compound `CC(Nc1ccc2c(c1)OCCn1cc(N3C(=O)OCC3C(F)F)nc1-2)C(N)=O` (centres undefined) + CCn1c(-c2cc(N3CCN(C)CC3)cnc2C(C)OC)c2c3cc(ccc31)-c1csc(n1)CC(NC(=O)C1CC1C)C(=O)N1CCCC(N1)C(=O)OCC(C)(C)C2 has an IC50 (second compound 0.000949 µM) greater than 10000 nM, an IC50 (second compound 0.003 µM) greater than 10000 nM and an IC50 (second compound 0.00949 µM) of 6620 nM. For the same compound, the IC50 (second compound 0.03 µM) was 9250 nM, the IC50 (second compound 0.0949 µM) was 9600 nM and the IC50 (second compound 0.3 µM) was 8390 nM. It also gave a viability, T/C [1] of 102%, a viability, T/C [2] of 90.3% and a viability, T/C [3] of 96%. For the same compound, the viability, T/C [4] was 73.8%, the viability, T/C [5] was 66% and the viability, T/C [6] was 53.2%. For the same compound, the viability, T/C [7] was 93.4%, the viability, T/C [8] was 95.7% and the viability, T/C [9] was 83.6%. It also gave a viability, T/C [10] of 76.4%, a viability, T/C [11] of 73.3% and a viability, T/C [12] of 52.2%. For the same compound, the viability, T/C [13] was 82.5%, the viability, T/C [14] was 80.4% and the viability, T/C [15] was 80.2%. The viability, T/C [16] was 73.5%, the viability, T/C [17] was 63% and the viability, T/C [18] was 42.7%. It also gave a viability, T/C [19] of 103%, a viability, T/C [20] of 91.5% and a viability, T/C [21] of 80.9%. For the same compound, the viability, T/C [22] was 72.6%, the viability, T/C [23] was 68.5% and the viability, T/C [24] was 45.5%. The viability, T/C [25] was 106%, the viability, T/C [26] was 85.1% and the viability, T/C [27] was 95.3%. For the same compound, the viability, T/C [28] was 80.5%, the viability, T/C [29] was 67.8% and the viability, T/C [30] was 48.1%. The viability, T/C [31] was 98.3%, the viability, T/C [32] was 99.3% and the viability, T/C [33] was 84.2%. For the same compound, the viability, T/C [34] was 71.7%, the viability, T/C [35] was 66.1% and the viability, T/C [36] was 46.4%.

For `C[C@@H](NC(=O)c1ncnc(N)c1Cl)c1ncc(C(=O)Nc2cc(C(F)(F)F)c(Cl)cn2)s1` + CCn1c(-c2cc(N3CCN(C)CC3)cnc2C(C)OC)c2c3cc(ccc31)-c1csc(n1)CC(NC(=O)C1CC1C)C(=O)N1CCCC(N1)C(=O)OCC(C)(C)C2, the IC50 (second compound 0.000949 µM) was 1690 nM, the IC50 (second compound 0.003 µM) was 1340 nM and the IC50 (second compound 0.00949 µM) was 1300 nM. For the same compound, the IC50 (second compound 0.03 µM) was 1090 nM, the IC50 (second compound 0.0949 µM) was 1360 nM and the IC50 (second compound 0.3 µM) was 1150 nM. It also gave a viability, T/C [1] of 131%, a viability, T/C [2] of 98.4% and a viability, T/C [3] of 85%. For the same compound, the viability, T/C [4] was 59.8%, the viability, T/C [5] was 38.7% and the viability, T/C [6] was 20%. It also gave a viability, T/C [7] of 106%, a viability, T/C [8] of 109% and a viability, T/C [9] of 71%. For the same compound, the viability, T/C [10] was 55.2%, the viability, T/C [11] was 40.7% and the viability, T/C [12] was 22%. The viability, T/C [13] was 107%, the viability, T/C [14] was 99.5% and the viability, T/C [15] was 83.6%. It also gave a viability, T/C [16] of 53.7%, a viability, T/C [17] of 33.9% and a viability, T/C [18] of 21.2%. It also gave a viability, T/C [19] of 107%, a viability, T/C [20] of 99.3% and a viability, T/C [21] of 78.8%. For the same compound, the viability, T/C [22] was 50.3%, the viability, T/C [23] was 33.4% and the viability, T/C [24] was 21.7%. The viability, T/C [25] was 121%, the viability, T/C [26] was 106% and the viability, T/C [27] was 72.6%. The viability, T/C [28] was 52.2%, the viability, T/C [29] was 38% and the viability, T/C [30] was 19.6%. The viability, T/C [31] was 108%, the viability, T/C [32] was 87.5% and the viability, T/C [33] was 65.9%. It also gave a viability, T/C [34] of 56.8%, a viability, T/C [35] of 33.6% and a viability, T/C [36] of 16.9%.
